For 17 molecules, IC70 results are on record in US10045983B2, “Heteroaryl pyridone and aza-pyrodine compounds” (Genentech, Inc., priority 2011, dated 2018).

The assay in a line: CD69 Whole Blood Assay (CD69 Hu Blood FACS). Type of assay: cell-based, human. The settings on record: Lymphocyte; human whole blood, anti-IgM activated B lymphocytes, FACS; IC70; Table 2 (unit inferred); read-out: CD69 Hu Blood FACS (IC70). A digest of the protocol:
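Human whole blood stimulated by crosslinking surface IgM with goat F(ab′)2 anti-human IgM; inhibition of CD69 expression on B lymphocytes measured by flow cytometry.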
Consider `Cc1cc(Nc2cc(-c3ccnc(N4CCc5c(c(F)c6n5CCCC6)C4=O)c3CO)cn(C)c2=O)nn1C` [Example 261, 2-[4-[5-[(1,5-dimethylpyrazol-3-yl)amino]-1-methyl-6-oxo-3-pyridyl]-3-(hydroxymethyl)-2-pyridyl]-10-fluoro-3,4,6,7,8,9-hexahydropyrido[3,4-b]indolizin-1-one], for which the IC70 came to 2.9 µM. With `Cc1cnc(Nc2cc(-c3ccnc(N4CCn5c(cc6c5CC(C)(C)C6)C4=O)c3CO)cn(C)c2=O)o1` [Example 262, 3-[3-(hydroxymethyl)-4-[1-methyl-5-[(5-methyloxazol-2-yl)amino]-6-oxo-3-pyridyl]-2-pyridyl]-7,7-dimethyl-1,2,6,8-tetrahydrocyclopenta[3,4]pyrrolo[3,5-b]pyrazin-4-one] the figure was 0.577 µM; with `Cn1nc(-c2ccnc(N3CCn4c5c(c(F)c4C3=O)CCCC5)c2CO)cc(Nc2ccncn2)c1=O` [Example 263, 10-fluoro-2-[3-(hydroxymethyl)-4-[1-methyl-6-oxo-5-(pyrimidin-4-ylamino)pyridazin-3-yl]-2-pyridyl]-3,4,6,7,8,9-hexahydropyrazino[1,2-a]indol-1-one], 2.2 µM. Take `Cn1cc(-c2ccnc(N3CCn4c(cc5c4CC(C)(C)C5)C3=O)c2CO)cc(Nc2ccnc(C(C)(C)O)n2)c1=O` [Example 264, 3-[3-(hydroxymethyl)-4-[5-[[2-(1-hydroxy-1-methyl-ethyl)pyrimidin-4-yl]amino]-1-methyl-6-oxo-3-pyridyl]-2-pyridyl]-7,7-dimethyl-1,2,6,8-tetrahydrocyclopenta[3,4]pyrrolo[3,5-b]pyrazin-4-one]: the IC70 worked out at 0.653 µM. In the case of `CCC(=O)N1CCn2nc(Nc3cc(-c4ccnc(N5CCn6c(cc7c6CC(C)(C)C7)C5=O)c4CO)cn(C)c3=O)cc2C1` [Example 265, 3-[3-(hydroxymethyl)-4-[1-methyl-6-oxo-5-[(5-propanoyl-6,7-dihydro-4H-pyrazolo[1,5-a]pyrazin-2-yl)amino]-3-pyridyl]-2-pyridyl]-7,7-dimethyl-1,2,6,8-tetrahydrocyclopenta[3,4]pyrrolo[3,5-b]pyrazin-4-one] it was 0.0091 µM. In the case of `Cn1cc(-c2ccnc(N3CCn4c(cc5c4CC(C)(C)C5)C3=O)c2CO)cc(Nc2cc(C3COC3)[nH]n2)c1=O` [Example 266, 3-[3-(hydroxymethyl)-4-[1-methyl-5-[[5-(oxetan-3-yl)-1H-pyrazol-3-yl]amino]-6-oxo-3-pyridyl]-2-pyridyl]-7,7-dimethyl-1,2,6,8-tetrahydrocyclopenta[3,4]pyrrolo[3,5-b]pyrazin-4-one], the concentration for an effect of 70% (IC70) came to 0.0293 µM. Turning to `Cc1nnc(Nc2cc(-c3ccnc(N4CCn5c(cc6c5CC(C)(C)C6)C4=O)c3CO)cn(C)c2=O)s1` [Example 267, 3-[3-(hydroxymethyl)-4-[1-methyl-5-[(5-methyl-1,3,4-thiadiazol-2-yl)amino]-6-oxo-3-pyridyl]-2-pyridyl]-7,7-dimethyl-1,2,6,8-tetrahydrocyclopenta[3,4]pyrrolo[3,5-b]pyrazin-4-one], the IC70 amounted to 0.225 µM.

With `Cn1cnc(Nc2cc(-c3ccnc(N4CCn5c(cc6c5CC(C)(C)C6)C4=O)c3CO)cn(C)c2=O)c1` [Example 268, 3-[3-(hydroxymethyl)-4-[1-methyl-5-[(1-methylimidazol-4-yl)amino]-6-oxo-3-pyridyl]-2-pyridyl]-7,7-dimethyl-1,2,6,8-tetrahydrocyclopenta[3,4]pyrrolo[3,5-b]pyrazin-4-one], the IC70 is 0.212 µM.

Regarding `Cn1cc(-c2ccnc(N3CCn4c(cc5c4CC(C)(C)C5)C3=O)c2CO)cc(Nc2ccc(C(=O)N3CCOCC3)cn2)c1=O` [Example 269, 3-[3-(hydroxymethyl)-4-[1-methyl-5-[[5-(morpholine-4-carbonyl)-2-pyridyl]amino]-6-oxo-3-pyridyl]-2-pyridyl]-7,7-dimethyl-1,2,6,8-tetrahydrocyclopenta[3,4]pyrrolo[3,5-b]pyrazin-4-one], the IC70 came out at 0.0251 µM. With `CN1CCn2nc(Nc3cc(-c4ccnc(N5CCn6c(cc7c6CCCC7)C5=O)c4CO)cn(C)c3=O)nc2C1` [Example 270, 2-[3-(hydroxymethyl)-4-[1-methyl-5-[(7-methyl-6,8-dihydro-5H-[1,2,4]triazolo[1,5-a]pyrazin-2-yl)amino]-6-oxo-3-pyridyl]-2-pyridyl]-3,4,6,7,8,9-hexahydropyrazino[1,2-a]indol-1-one] the figure was 5.9 µM. Take `C[C@H]1CN(C2COC2)CCN1c1ccc(Nc2cc(-c3ccnc(N4CCn5c(cc6c5CC(C)(C)C6)C4=O)c3CO)c[nH]c2=O)nc1` [Example 271, 3-[3-(hydroxymethyl)-4-[5-[[5-[(2S)-2-methyl-4-(oxetan-3-yl)piperazin-1-yl]-2-pyridyl]amino]-6-oxo-1H-pyridin-3-yl]-2-pyridyl]-7,7-dimethyl-1,2,6,8-tetrahydrocyclopenta[3,4]pyrrolo[3,5-b]pyrazin-4-one]: the IC70 turned out to be 0.0245 µM. On to `Cn1cc(-c2ccnc(N3CCn4c(cc5c4CC(C)(C)C5)C3=O)c2CO)cc(Nc2ccc(C3CN(C4COC4)C3)cn2)c1=O` [Example 272, 3-[3-(hydroxymethyl)-4-[1-methyl-5-[[5-[1-(oxetan-3-yl)azetidin-3-yl]-2-pyridyl]amino]-6-oxo-3-pyridyl]-2-pyridyl]-7,7-dimethyl-1,2,6,8-tetrahydrocyclopenta[3,4]pyrrolo[3,5-b]pyrazin-4-one], for which the IC70 amounted to 0.034 µM. On to `Cn1cc(-c2ccnc(N3CCn4c(cc5c4CC(C)(C)C5)C3=O)c2CO)cc(Nc2ccccn2)c1=O` [Example 273, 3-[3-(hydroxymethyl)-4-[1-methyl-6-oxo-5-(2-pyridylamino)-3-pyridyl]-2-pyridyl]-7,7-dimethyl-1,2,6,8-tetrahydrocyclopenta[3,4]pyrrolo[3,5-b]pyrazin-4-one], for which the IC70 is 0.299 µM. As for `Cc1cnc(Nc2cc(-c3ccnc(N4CCn5c(cc6c5CC(C)(C)C6)C4=O)c3CO)cn(C)c2=O)cn1` [Example 274, 3-[3-(hydroxymethyl)-4-[1-methyl-5-[(5-methylpyrazin-2-yl)amino]-6-oxo-3-pyridyl]-2-pyridyl]-7,7-dimethyl-1,2,6,8-tetrahydrocyclopenta[3,4]pyrrolo[3,5-b]pyrazin-4-one], the IC70 was determined as 0.466 µM. In the case of `Cn1cc(-c2ccnc(N3CCn4c(cc5c4CC(C)(C)C5)C3=O)c2CO)cc(Nc2ccc(F)cn2)c1=O` [Example 275, 3-[4-[5-[(5-fluoro-2-pyridyl)amino]-1-methyl-6-oxo-3-pyridyl]-3-(hydroxymethyl)-2-pyridyl]-7,7-dimethyl-1,2,6,8-tetrahydrocyclopenta[3,4]pyrrolo[3,5-b]pyrazin-4-one] it was 0.423 µM. In the case of `Cn1cc(-c2ccnc(N3CCn4c(cc5c4CC(C)(C)C5)C3=O)c2CO)cc(Nc2ccc(C#N)cn2)c1=O` [Example 276, 6-[[5-[2-(7,7-dimethyl-4-oxo-1,2,6,8-tetrahydrocyclopenta[3,4]pyrrolo[3,5-b]pyrazin-3-yl)-3-(hydroxymethyl)-4-pyridyl]-1-methyl-2-oxo-3-pyridyl]amino]pyridine-3-carbonitrile] it was 0.358 µM.

In the case of `COc1ccc(Nc2cc(-c3ccnc(N4CCn5c(cc6c5CC(C)(C)C6)C4=O)c3CO)cn(C)c2=O)nc1` [Example 277, 3-[3-(hydroxymethyl)-4-[5-[(5-methoxy-2-pyridyl)amino]-1-methyl-6-oxo-3-pyridyl]-2-pyridyl]-7,7-dimethyl-1,2,6,8-tetrahydrocyclopenta[3,4]pyrrolo[3,5-b]pyrazin-4-one], the IC70 came to 0.339 µM.
